Reference: patent US20140377289A1, “Metallodrugs Having Improved Pharmacological Properties, and Methods of Manufacture and Use Thereof” (MetalloPharm, LLC, priority 2011, published 2014)
Read-outs that look alike come from different tables or passages of the source. Where a SMILES comes first, the peptide text is derived from it. [ ]: non-standard residue; d: D form. Cha = N[C@@H](CC1CCCCC1)C(=O)O

What was measured:
[1] = biological target: S. aureus sortase A (Staphylococcus aureus, UniProt Q2FV99); assay type: biochemical; details: for activity for catalyst concentration of 1 μM: catalyst concentration 1 μM
Experimental: Apparent binding affinities and rates of inactivation for S. aureus sortase A by several metallopeptide derivatives were evaluated. […]

[2] = test system: HCV RNA replicon in ET (luc-ubi-neo/ET) Huh7 cells; details: read-out: antiviral IC50; 72 h, replicon-derived Luc activity
[3] = test system: ET (luc-ubi-neo/ET) Huh7 human hepatoma cell line; details: read-out: cytotoxicity TC50; 72 h, CytoTox-1 colorimetric assay
[4] = test system: HIV RRE RNA (AP-RRE RNA); assay type: binding; details: for Kd: 37° C., pH 7.4
Experimental: Determination of Dissociation Constants. […] A 660 μL volume of 100 nM AP-RRE RNA was first heated to 90° C. for 5 min and then allowed to cool to, but not below, the titration temperature (37° C.). A 650 μL volume of this sample was added to the pre-thermostatted cuvette. After 10 min of temperature equilibration a solution of 5 μM M-chelate-Rev complex was titrated into the solution. After each addition, 100 μL of the solution was mixed by gentle pipeting to ensure complete mixing. The fluorescence change associated with the change of environment of the aminopurine label was monitored following peptide binding. Titration response curves were dilution and background corrected and normalized to initial intensity values. Curves were fit to a biphasic equation (4) for two independent binding sites where Fobs is the total observed fluorescence intensity, P0 is the total concentration of added M-chelate-Rev, F0, F1, and F2 are fitting parameters corresponding to the intensities of the unbound, singly-bound, and doubly-bound AP-RNA, respectively, R0 is the initial concentration of AP-RNA, and KD1 and KD2 are dissociation constants for binding at the high- and low-affinity sites, respectively. All binding experiments were performed in a binding buffer composed of 20 mM HEPES, 100 mM NaCl, pH 7.4.

[5] = test system: 5′ fluorescein end-labeled RRE stem IIB RNA (Fl-RNA); test: PAGE analysis of RRE RNA cleavage kinetics; assay type: biochemical, HIV; details: 100 nM complex, 100 nM Fl-RNA, 1 mM H2O2, 1 mM ascorbate, 37° C.; initial rate
Experimental: PAGE Analysis of RRE RNA Cleavage Kinetics. Reactions of 100 nM metal-chelate-Rev (1:1.2 M:chelate ratio), 1 mM H2O2, 1 mM ascorbate, and 100 nM 5′ fluorescein end-labeled RRE stem IIB RNA (Fl-RNA) were conducted at 37° C. in separate tubes, each containing 20 μL total reaction volume—one tube corresponding to one gel lane. A buffer consisting of 20 mM HEPES, 100 mM NaCl, pH 7.4 was used in all experiments. Fl-RNA was heated to 90° C. and allowed to cool to, but not below 37° C. prior to reaction, and the Fl-RNA was immediately added to each pre-incubated tube. Reactants were added to pre-incubated tubes at time-points corresponding to the beginning of each reaction, which were performed in a dark incubator. Reaction start times were staggered and all reactions were quenched at the same time by addition of a quenching/gel-loading buffer solution (80 μL/tube) consisting of standard 1× tris-EDTA-acetic acid buffer, 8M urea, 20 mM HEPES, 100 mM NaCl. The tubes were then heated to 90° C. for 5 min and a 5 μL aliquot from each tube was then loaded into its corresponding lane of a 10% polyacrylamide 8 M urea gel, resulting in […] Fl-RNA per lane. Gel electrophoresis was performed at 250 V for 1.5 h. Gels were analyzed on a GE Typhoon variable mode imager using 488 nm excitation and a 526 nm single pass emission filter. Bands were quantified with the program ImageQuant. Loss of initial Fl-RNA reactant bands were fit to a first-order reaction equation using the software Origin, and observed rate constants and initial rates were determined. Control reactions with respective metal-chelates lacking the Rev domain were conducted in the same manner.

[6] = test system: AP-RNA (aminopurine-labeled RRE RNA); test: Reaction kinetics monitored by real-time fluorimetry, AP-RNA; assay type: biochemical, HIV; details: 100 nM complex, 100 nM AP-RNA, 1 mM H2O2, 1 mM ascorbate, 37° C.; initial rate
Experimental: Reaction Kinetics Monitored by Real-Time Fluorimetry. Reactions of 100 nM metal-chelate-Rev (1:1.2 M:chelate ratio), 1 mM H2O2, 1 mM ascorbate, and 100 nM AP-RNA were conducted at 37° C. in a fluorescence cuvette in a Varian Cary Eclipse fluorescence spectrophotometer. Reactions were monitored using excitation at 310 nm (SW=10 nm) and emission at 371 nm (SW=10 nm). Prior to reaction the AP-RNA was pre-heated to 90° C. for 5 min and then added to the pre-warmed 37° C. cuvette. The metal-chelate-Rev complexes were added after 5 min, and reactions were initiated by the addition of H2O2 and ascorbate after an additional 10 min. Each resulting fluorescence trace was fit to a first-order reaction equation using the software Origin, and observed rate constants and initial rates were determined; the magnitude of fluorescence change that corresponded to complete reaction was established by averaging the magnitudes of fluorescence change from many trials known to react to completion. All concentrations and buffer were identical to those used in the PAGE analysis assay with Fl-RNA. Control reactions with respective metal-chelates lacking the Rev domain were conducted in the same manner.

[7] = test system: pUC19 plasmid DNA; test: DNA nicking and linearization nuclease assay; assay type: biochemical; details: 10 μM base pairs pUC19, ascorbate/peroxide; for klin for DNA linearization, with attached Rev (M-chelate-REV) / knick for DNA nicking, with attached Rev (M-chelate-REV): 100 nM M-chelate-Rev; for klin for DNA linearization, without attached Rev (M-chelate) / knick for DNA nicking, without attached Rev (M-chelate): — = Below detection limit
[8] = biological target: stem-loop IIb of HCV IRES RNA; assay type: binding, hepatitis C virus (HCV)
Experimental: RNA was purchased from Dharmacon, part of Thermo Fisher Scientific (Lafayette, Colo.). Peptides were purchased from Genemed Synthesis Inc (South San Francisco, Calif.) with C-terminal amidation. The stem-loop (SL) structure (from Lytle et al., RNA 13: 539-48, 2002) is depicted in FIG. 6. The sequence for the IRES SL IIb RNA used was 5′-Fluorescein-[…]-3′, and for the IRES SL IV RNA was 5′-Fluorescein-[…]-3′. All RNA was annealed by heating to 95° C. and then cooled slowly to room temperature before use.
RNA binding experiments were performed in the presence of 84 nM GGHYrFK-amide in 20 mM HEPES (pH 7.4), 100 mM NaCl. For GGHYrFK-amide, serial additions of unlabeled IRES RNA were added and tyrosine emission was monitored (λex=280 nm, λem=313 nm). Binding data for GGHYr[…]-amide and GGHYr[…]-amide were obtained by adding serial additions of peptide to 5′-fluorescein labeled IRES SLIIb and monitoring at 518 nm (Ex=485 nm). Data was then fit to a one-site binding model.

[9] = test system: stem loop IIb HCV IRES RNA; assay type: biochemical, hepatitis C virus (HCV)
Experimental: HCV IRES RNA cleavage was monitored in vitro by fluorescence using 5′ fluorescein end-labeled RNA with excitation and emission wavelengths of 485 nm and 518 nm, respectively. Reactions were carried out in reaction volumes of 100 μl in the presence of 1 mM ascorbate and 1 mM H2O2 in 20 mM HEPES buffer (pH=7.4), 100 mM NaCl with 100 nM of the catalyst and analyzed according to the change in fluorescence observed as the reaction occurred. Both a time-dependence and a concentration-dependence of RNA substrate were observed. The initial velocities were fit to a line using Origin 7.0 software and kobs obtained. These values were then used to obtain the Michaelis-Menten parameters.
The reactivity of select catalytic metallodrugs was investigated by Michaelis-Menten profiles. Reaction chemistry was followed by monitoring the fluorescence change of 5′-fluorescein-labeled RNA as a function of time. Initial velocities were measured as a function of substrate (RNA) concentration to generate a standard Michaelis-Menten plot (FIG. 2).

[10] = biological target: HCV protease (Hepatitis C virus genotype 1a, UniProt P27958); test: biochemical; assay type: binding
Description: This stems from the relationship between affinity and the on/off rate constants for binding (KA=kon/koff), where higher affinity binding is promoted by larger kon and/or smaller koff values. By contrast, efficient catalytic turnover requires koff values that are preferably no smaller than the rate constant for the inactivation chemistry (kcat), to ensure the availability of metallodrug catalyst for new target molecules, and will be best promoted by relatively high values for both kon and koff, which will result in weaker KA values.
Apparent binding affinities and rates of inactivation for HCV protease by several metallopeptide derivatives incorporating a Cu-GGH metal binding domain and C-terminal HCV protease targeting peptides were prepared and their affinity and reactivity were evaluated under in the presence of various redox reagents. Affinities lay within the range of 10^4M^−1 and 5×10^8 M^−1.

[11] = high-affinity RRE RNA site, read-out: KD1
[12] = low-affinity RRE RNA site, read-out: KD2
[13] = Michaelis-Menten, stem-loop IIb RNA as substrate

Sequence of S. aureus sortase A (Q2FV99 whole entry): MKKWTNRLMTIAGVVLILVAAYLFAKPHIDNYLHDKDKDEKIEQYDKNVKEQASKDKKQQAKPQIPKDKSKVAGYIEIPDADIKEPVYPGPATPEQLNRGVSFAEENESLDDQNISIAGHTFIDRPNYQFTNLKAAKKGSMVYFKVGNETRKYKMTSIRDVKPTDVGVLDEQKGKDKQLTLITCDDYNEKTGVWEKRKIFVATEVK
Sequence of HCV protease (P27958 1027-1208, other chains not shown): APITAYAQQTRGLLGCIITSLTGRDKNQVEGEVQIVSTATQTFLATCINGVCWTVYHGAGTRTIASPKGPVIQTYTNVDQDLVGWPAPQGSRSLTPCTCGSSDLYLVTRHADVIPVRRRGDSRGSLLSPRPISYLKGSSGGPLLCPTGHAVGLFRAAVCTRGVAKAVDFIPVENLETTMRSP

Cu-GGHGLPET
IC50 [1]: > 100000 nM
activity for catalyst concentration of 1 μM [1]: 0.027

Cu-GGHGKYKETDLLILFKDDYFAKKNEERK
IC50 [2]: 550 nM
CC50 [3]: > 100000 nM

Cu complex of DOTA coupled to K-Rev, Ac-KTRQARRNRRRRWRERQR-NH2 [Cu-DOTA-Rev]
KA1 ([4]; high-affinity RRE RNA site): 25 10^8 M^−1
Kd [4, 11]: 0.4 ± 0.1 nM
KA2 ([4]; low-affinity RRE RNA site): 0.02 10^8 M^−1
Kd [4, 12]: 488 ± 9 nM
Fl-RNA Cleavage Rate [5]: 0.8 ± 0.1 nM/min
AP-RNA Modification Rate [6]: 2.8 ± 0.1 nM/min
klin for DNA linearization, with attached Rev (M-chelate-REV) [7]: 0.0025 ± 0.0008 min⁻¹
knick for DNA nicking, with attached Rev (M-chelate-REV) [7]: 0.043 ± 0.007 min⁻¹

Cu-GGHGKYKETDLLILFKDDYFAKKNEERKKDEL
IC50 [2]: 750 nM
CC50 [3]: > 50000 nM

O=C(O)CN(CCN(CC(=O)O)CC(=O)O)CC(=O)O.[Ni] [Ni-EDTA]
klin for DNA linearization, without attached Rev (M-chelate) [7]: 0.00019 ± 0.00002 min⁻¹
knick for DNA nicking, without attached Rev (M-chelate) [7]: 0.037 ± 0.002 min⁻¹

Cu-GGHGAALEAKICHQIEYYFGDF
IC50 [2]: 6250 nM
CC50 [3]: 52000 nM

Cu-GGHGYrFKGGGYGRKKRRQRRR
IC50 [2]: 950 nM
CC50 [3]: 96000 nM

Cu-GGHKYKETDLLILFKDDYFAKKNEERKYGRKKRRQRRR
IC50 [2]: 830 nM
CC50 [3]: > 50000 nM

Cu complex of ATCUN peptide GGHYrFK, C-terminal amidated; targets stem-loop IIb of HCV IRES RNA [Cu-GGHYrFK-amide]
Kd ([8]; change in tyrosine emission at 313 nm): 44 ± 2 nM
KA ([8]; stem-loop IIb): 2.27e+07 M⁻¹
Km [9, 13]: 0.85 µM
kcat [9, 13]: 0.00883 s⁻¹
Vmax ([9]; cleavage of stem-loop IIb, 100 nM catalyst, 1 mM ascorbate, 1 mM H2O2): 1.71 RFU/min
turnover number ([9]; stem-loop IIb RNA as substrate): 32
IC50 [2]: 580 nM
CC50 [3]: > 100000 nM

Cu-GGHAALEAKICHQIEYYFGDF
IC50 [2]: 3460 nM
CC50 [3]: 41100 nM

Cu complex of GGH-Rev, GGHTRQARRNRRRRWRERQR-NH2 [Cu-GGH-Rev]
KA1 ([4]; high-affinity RRE RNA site): 25 10^8 M^−1
Kd [4, 11]: 4.6 ± 0.5 nM
KA2 ([4]; low-affinity RRE RNA site): 0.028 10^8 M^−1
Kd [4, 12]: 363 ± 9 nM
Fl-RNA Cleavage Rate [5]: 0.045 ± 0.005 nM/min
AP-RNA Modification Rate [6]: 0.4 ± 0.3 nM/min
klin for DNA linearization, with attached Rev (M-chelate-REV) [7]: 0.0013 ± 0.0001 min⁻¹
knick for DNA nicking, with attached Rev (M-chelate-REV) [7]: 0.069 ± 0.006 min⁻¹

Cu-GGHYrFKGGGYGRKKRRQRRR
IC50 [2]: 1850 nM
CC50 [3]: 84000 nM

CC[C@H](C)[C@H](NC(=O)[C@H](CC(C)C)NC(=O)[C@@H](CCC(=O)O)NC(=O)[C@H](CC(=O)O)NC(=O)CNC(=O)[C@H](Cc1c[nH]cn1)NC(=O)CNC(=O)CN)C(=O)N[C@@H](CC1CCCCC1)C(=O)N[C@@H](CS)C(=O)O [Cu-GGHGDeLI(Cha)C—CO2^−] (H-GGHGD[dE]LI[Cha]C-OH)
Kd [10]: 500 nM
Ki [10]: ~500 nM
KA ([10]; apparent binding affinity): ~2e+06 M⁻¹

Cu-GGHGYrFK
IC50 [2]: 1380 nM
CC50 [3]: > 100000 nM

Cu-GGHGLPETG
IC50 [1]: > 100000 nM
activity for catalyst concentration of 1 μM [1]: 0.012

Cu-GGHLPETG
IC50 [1]: > 100000 nM
activity for catalyst concentration of 1 μM [1]: 0.017

O=C([O-])CN(CC(=O)[O-])CC(=O)[O-].[Fe+3] [Fe-NTA]
klin for DNA linearization, without attached Rev (M-chelate) [7]: 0.0008 ± 0.0002 min⁻¹
knick for DNA nicking, without attached Rev (M-chelate) [7]: 0.05 ± 0.01 min⁻¹

Cu-GGHGYrFKGGGKDEL
IC50 [2]: 910 nM
CC50 [3]: > 100000 nM
